From ChEMBL document CHEMBL1142186, “Multistep resistance selection and postantibiotic-effect studies of the antipneumococcal activity of LBM415 compared to other agents” (2007) come the findings set out here.

Converted amounts (≈) assume the structure as drawn.

Holding throughout (format): functional
For experiment [1], the system named is Streptococcus pneumoniae. The experiment can be described thus: Antibacterial activity against gatifloxacin resistance selected Streptococcus pneumoniae 37 with GyrA S81Y, GyrB E474K and ParC S79Y mutation after 10 antibiotic-free subcultures by macrodilution method.
Experiment [2] has as its system Streptococcus pneumoniae. The experiment can be described thus: Antibacterial activity against Streptococcus pneumoniae assessed as period of suppression of bacterial growth.
Experiment [3] relates to Streptococcus pneumoniae. The experiment can be described thus: Antibacterial activity against moxifloxacin resistance selected Streptococcus pneumoniae 24 with GyrA S81Y, GyrB P413S and ParC S79F mutation after 10 antibiotic-free subcultures by macrodilution method.
The subject of experiment [4] is Streptococcus pneumoniae. In words: Antibacterial activity against azithromycin resistance selected Streptococcus pneumoniae 2527 after 10 antibiotic-free subcultures by macrodilution method.
For experiment [5], the system named is Streptococcus pneumoniae. In words: Antibacterial activity against levofloxacin resistance selected Streptococcus pneumoniae 3009 with GyrA S81Y and ParC S79Y mutation after 10 antibiotic-free subcultures by macrodilution method.
Experiment [6] concerns Streptococcus pneumoniae. In words: Antibacterial activity against gatifloxacin resistance selected Streptococcus pneumoniae 3009 after 10 antibiotic-free subcultures by macrodilution method.
For experiment [7], the system named is Streptococcus pneumoniae. In words: Antibacterial activity against moxifloxacin resistance selected Streptococcus pneumoniae 3009 with GyrA S81F and ParC D83N mutation after 10 antibiotic-free subcultures by macrodilution method.
Experiment [8] deals with Streptococcus pneumoniae. In words: Antibacterial activity against clarithromycin resistance selected Streptococcus pneumoniae 3009 after 10 antibiotic-free subcultures by macrodilution method.
Experiment [9] has as its system Streptococcus pneumoniae. In words: Antibacterial activity against moxifloxacin resistance selected Streptococcus pneumoniae 1076 with ParC S79Y mutation after 10 antibiotic-free subcultures by macrodilution method.
Experiment [10] concerns Streptococcus pneumoniae. The experiment can be described thus: Antibacterial activity against gatifloxacin resistance selected Streptococcus pneumoniae 1076 with ParC S79Y mutation after 10 antibiotic-free subcultures by macrodilution method.
In experiment [11] the test system is Streptococcus pneumoniae. In words: Antibacterial activity against azithromycin resistance selected Streptococcus pneumoniae 1077 with 23S rRNA A2058G mutation after 10 antibiotic-free subcultures by macrodilution method.
The subject of experiment [12] is Streptococcus pneumoniae. The experiment can be described thus: Antibacterial activity against moxifloxacin resistance selected Streptococcus pneumoniae 3665 with GyrA S81Y mutation after 10 antibiotic-free subcultures by macrodilution method.
For experiment [13], the system named is Streptococcus pneumoniae. The experiment can be described thus: Antibacterial activity against clarithromycin resistance selected Streptococcus pneumoniae 3665 after 10 antibiotic-free subcultures by macrodilution method.
Experiment [14] concerns Streptococcus pneumoniae. The experiment can be described thus: Antibacterial activity against moxifloxacin resistance selected Streptococcus pneumoniae 3676 with GyrA E85G, GyrB S478I and ParC S79Y mutation after 10 antibiotic-free subcultures by macrodilution method.
Experiment [15] relates to Streptococcus pneumoniae. The experiment can be described thus: Antibacterial activity against clarithromycin resistance selected Streptococcus pneumoniae 3676 after 10 antibiotic-free subcultures by macrodilution method.
Experiment [16] relates to Streptococcus pneumoniae. In words: Antibacterial activity against moxifloxacin resistance selected Streptococcus pneumoniae 3243 after 10 antibiotic-free subcultures by macrodilution method.
For experiment [17], the system named is Streptococcus pneumoniae. The experiment can be described thus: Antibacterial activity against azithromycin resistance selected Streptococcus pneumoniae 3243 with L22 insertion 93SFRPRA94 mutation after 10 antibiotic-free subcultures by macrodilution method.
Experiment [18] concerns Streptococcus pneumoniae. In words: Antibacterial activity against clarithromycin resistance selected Streptococcus pneumoniae 3243 with 23S rRNA A2059T mutation after 10 antibiotic-free subcultures by macrodilution method.
Experiment [19] concerns Streptococcus pneumoniae. In words: Antibacterial activity against moxifloxacin resistance selected Streptococcus pneumoniae 19 with GyrA S81F mutation after 10 antibiotic-free subcultures by macrodilution method.
Experiment [20] deals with Streptococcus pneumoniae. The experiment can be described thus: Antibacterial activity against levofloxacin resistance selected Streptococcus pneumoniae 19 with GyrA S81Y and ParC D83Y mutation after 10 antibiotic-free subcultures by macrodilution method.

For the compound `C[C@H]1COc2c(N3CCN(C)CC3)c(F)cc3c(=O)c(C(=O)O)cn1c23.C[C@H]1COc2c(N3CCN(C)CC3)c(F)cc3c(=O)c(C(=O)O)cn1c23.O` [LEVOFLOXACIN], in the experiment with Streptococcus pneumoniae [1], the MIC turned out to be 64 µg/mL. Moreover, the “Post Antibiotic Effe” value with Streptococcus pneumoniae [2] was found to be 1.3 h.

For the compound `C=CC1=C(C(=O)O)N2C(=O)[C@@H](NC(=O)/C(=N\O)c3csc(N)n3)[C@H]2SC1`, the MIC against Streptococcus pneumoniae [3] came to 2 µg/mL (≈ 5.06 µM); against Streptococcus pneumoniae [4] it was 16 µg/mL (≈ 40.5 µM); with Streptococcus pneumoniae [1], 4 µg/mL (≈ 10.1 µM); against Streptococcus pneumoniae [5] it was 0.06 µg/mL (≈ 0.152 µM); in the experiment on Streptococcus pneumoniae [6], 0.125 µg/mL (≈ 0.316 µM); in the experiment with Streptococcus pneumoniae [7], 0.06 µg/mL (≈ 0.152 µM). Further, the MIC is 0.125 µg/mL (≈ 0.316 µM) against Streptococcus pneumoniae [8]; 0.06 µg/mL (≈ 0.152 µM) in the experiment with Streptococcus pneumoniae [9]; 0.125 µg/mL (≈ 0.316 µM) with Streptococcus pneumoniae [10]; 0.06 µg/mL (≈ 0.152 µM) in the experiment with Streptococcus pneumoniae [11]; 0.125 µg/mL (≈ 0.316 µM) against Streptococcus pneumoniae [12]; 0.25 µg/mL (≈ 0.632 µM) with Streptococcus pneumoniae [13]. The MIC was 0.125 µg/mL (≈ 0.316 µM) with Streptococcus pneumoniae [14]; 0.06 µg/mL (≈ 0.152 µM) in the experiment with Streptococcus pneumoniae [15]; 0.06 µg/mL (≈ 0.152 µM) in the experiment on Streptococcus pneumoniae [16]; 0.125 µg/mL (≈ 0.316 µM) against Streptococcus pneumoniae [17]; 0.25 µg/mL (≈ 0.632 µM) against Streptococcus pneumoniae [18]; 2 µg/mL (≈ 5.06 µM) against Streptococcus pneumoniae [19]. This compound also returned an MIC with Streptococcus pneumoniae [20] of 4 µg/mL (≈ 10.1 µM). In addition, the “Post Antibiotic Effe” value with Streptococcus pneumoniae [2] worked out at 1.6 h.

For `CO/N=C(\C(=O)N[C@@H]1C(=O)N2C(C(=O)O)=C(COC(N)=O)CS[C@H]12)c1ccco1` [CEFUROXIME], the MIC is 2 µg/mL (≈ 4.71 µM) against Streptococcus pneumoniae [3]; 16 µg/mL (≈ 37.7 µM) against Streptococcus pneumoniae [4]; 2 µg/mL (≈ 4.71 µM) against Streptococcus pneumoniae [1]; no more than 0.016 µg/mL against Streptococcus pneumoniae [5]; 0.03 µg/mL (≈ 0.0707 µM) against Streptococcus pneumoniae [6]; 0.03 µg/mL (≈ 0.0707 µM) against Streptococcus pneumoniae [7]. The MIC in the experiment on Streptococcus pneumoniae [8] is 0.03 µg/mL (≈ 0.0707 µM); in the experiment with Streptococcus pneumoniae [9] it was 0.03 µg/mL (≈ 0.0707 µM); in the experiment on Streptococcus pneumoniae [10] it was 0.125 µg/mL (≈ 0.295 µM); in the experiment on Streptococcus pneumoniae [11], 0.03 µg/mL (≈ 0.0707 µM); against Streptococcus pneumoniae [12] it was 0.5 µg/mL (≈ 1.18 µM); with Streptococcus pneumoniae [13], 0.125 µg/mL (≈ 0.295 µM). Further, the MIC turned out to be 0.125 µg/mL (≈ 0.295 µM) in the experiment with Streptococcus pneumoniae [14]; 0.125 µg/mL (≈ 0.295 µM) against Streptococcus pneumoniae [15]; 0.25 µg/mL (≈ 0.589 µM) against Streptococcus pneumoniae [16]; 0.5 µg/mL (≈ 1.18 µM) against Streptococcus pneumoniae [17]; 0.25 µg/mL (≈ 0.589 µM) with Streptococcus pneumoniae [18]; 2 µg/mL (≈ 4.71 µM) against Streptococcus pneumoniae [19]. In the experiment on Streptococcus pneumoniae [20], this compound registered an MIC of 2 µg/mL (≈ 4.71 µM). Moreover, the “Post Antibiotic Effe” value with Streptococcus pneumoniae [2] was found to be 1.5 h.

For the compound `C[C@@H](O)[C@H]1C(=O)N2C(C(=O)O)=C(SCCNC=N)C[C@H]12` [IMIPENEM ANHYDROUS], the MIC is 0.5 µg/mL (≈ 1.67 µM) with Streptococcus pneumoniae [3]; 0.5 µg/mL (≈ 1.67 µM) against Streptococcus pneumoniae [4]; 0.5 µg/mL (≈ 1.67 µM) against Streptococcus pneumoniae [1]; no more than 0.004 µg/mL in the experiment with Streptococcus pneumoniae [5]; 0.008 µg/mL (≈ 0.0267 µM) in the experiment on Streptococcus pneumoniae [6]; 0.008 µg/mL (≈ 0.0267 µM) in the experiment with Streptococcus pneumoniae [7]. Moreover, the minimum inhibitory concentration (MIC) against Streptococcus pneumoniae [8] is no more than 0.004 µg/mL; against Streptococcus pneumoniae [9], 0.008 µg/mL (≈ 0.0267 µM); against Streptococcus pneumoniae [10], 0.008 µg/mL (≈ 0.0267 µM); in the experiment with Streptococcus pneumoniae [11] it was 0.008 µg/mL (≈ 0.0267 µM); with Streptococcus pneumoniae [12] it was 0.03 µg/mL (≈ 0.1 µM); against Streptococcus pneumoniae [13] it was 0.03 µg/mL (≈ 0.1 µM). In addition, the MIC against Streptococcus pneumoniae [14] was 0.03 µg/mL (≈ 0.1 µM); against Streptococcus pneumoniae [15] it was 0.016 µg/mL (≈ 0.0534 µM); in the experiment on Streptococcus pneumoniae [16], 0.004 µg/mL (≈ 0.0134 µM); with Streptococcus pneumoniae [17], 0.03 µg/mL (≈ 0.1 µM); against Streptococcus pneumoniae [18], 0.03 µg/mL (≈ 0.1 µM); against Streptococcus pneumoniae [19], 0.5 µg/mL (≈ 1.67 µM). In the experiment with Streptococcus pneumoniae [20], the MIC turned out to be 0.5 µg/mL (≈ 1.67 µM). Besides, the “Post Antibiotic Effe” value in the experiment with Streptococcus pneumoniae [2] is 1.7 h.

For the compound `CO/N=C(\C(=O)N[C@@H]1C(=O)N2C(C(=O)O)=C(CSc3nc(=O)c(O)nn3C)CS[C@H]12)c1csc(N)n1` [CEFTRIAXONE], the MIC in the experiment on Streptococcus pneumoniae [3] turned out to be 1 µg/mL (≈ 1.8 µM); with Streptococcus pneumoniae [4] it was 2 µg/mL (≈ 3.61 µM); in the experiment on Streptococcus pneumoniae [1] it was 2 µg/mL (≈ 3.61 µM); against Streptococcus pneumoniae [5], 0.016 µg/mL (≈ 0.0289 µM); against Streptococcus pneumoniae [6] it was 0.016 µg/mL (≈ 0.0289 µM); with Streptococcus pneumoniae [7] it was 0.03 µg/mL (≈ 0.0541 µM). Also, the MIC worked out at 0.016 µg/mL (≈ 0.0289 µM) with Streptococcus pneumoniae [8]; 0.016 µg/mL (≈ 0.0289 µM) in the experiment on Streptococcus pneumoniae [9]; 0.016 µg/mL (≈ 0.0289 µM) in the experiment on Streptococcus pneumoniae [10]; 0.03 µg/mL (≈ 0.0541 µM) against Streptococcus pneumoniae [11]; 0.06 µg/mL (≈ 0.108 µM) in the experiment with Streptococcus pneumoniae [12]; 0.03 µg/mL (≈ 0.0541 µM) in the experiment on Streptococcus pneumoniae [13]. Besides, the MIC against Streptococcus pneumoniae [14] was 0.03 µg/mL (≈ 0.0541 µM); against Streptococcus pneumoniae [15], 0.03 µg/mL (≈ 0.0541 µM); with Streptococcus pneumoniae [16], no more than 0.008 µg/mL; with Streptococcus pneumoniae [17], 0.125 µg/mL (≈ 0.225 µM); against Streptococcus pneumoniae [18], 0.125 µg/mL (≈ 0.225 µM); against Streptococcus pneumoniae [19] it was 2 µg/mL (≈ 3.61 µM). The compound also registered an MIC in the experiment on Streptococcus pneumoniae [20] of 2 µg/mL (≈ 3.61 µM). Besides, the “Post Antibiotic Effe” value with Streptococcus pneumoniae [2] came out at 1.3 h.

By MIC is commonly meant the lowest concentration that inhibits growth of the organism. A low value points to inhibition by little substance.
